Reference: patent publication US20110294828A1, “PROCESS FOR PREPARING A POLYMORPH OF THE CHOLINE SALT OF A PYRIMIDIN-5-YL ACETIC ACID DERIVATIVE” (BOEHRINGER INGELHEIM INTERNATIONAL GMBH, priority 2009, published 2011)
Where a name gives a salt, the structure may show the parent alone.

What was measured:
[1] = target: T1, CRTH2 (Homo sapiens, UniProt Q9Y5Y4); experiment: CRTH2 antagonistic activity (statement only, no method given)
T1 sequence (Q9Y5Y4 1-395): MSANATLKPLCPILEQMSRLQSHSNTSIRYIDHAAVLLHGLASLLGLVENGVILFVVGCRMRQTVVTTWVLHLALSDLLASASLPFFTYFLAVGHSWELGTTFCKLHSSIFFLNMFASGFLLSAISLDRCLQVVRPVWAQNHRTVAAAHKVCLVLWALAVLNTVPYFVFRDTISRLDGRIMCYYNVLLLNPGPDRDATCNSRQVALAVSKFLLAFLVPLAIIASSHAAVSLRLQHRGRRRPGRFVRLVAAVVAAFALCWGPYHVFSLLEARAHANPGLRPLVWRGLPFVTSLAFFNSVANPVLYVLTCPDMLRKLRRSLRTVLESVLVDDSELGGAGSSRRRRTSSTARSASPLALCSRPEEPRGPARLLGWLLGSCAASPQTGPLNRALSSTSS

[2] = Particle size distribution (Sympatec HELOS, dry powder dispersion); format: physicochemical; set-up: particle size D90: dose or concentration left out as unconfirmed; conditions: for Particle size distribution (PSD) % <10 μM / Particle size distribution (PSD) % <50 μM / particle size D90: crystalline product as isolated, no milling; for particle size D90: the values are: particle size D90
Procedure: Determination of particle size distribution was carried out using a Sympatec HELOS System H1588 with a RODOS/M Dry Powder Dispersion System.

[3] = Dynamic vapor sorption/desorption (DVS); format: physicochemical; conditions: up to 75% relative humidity at 25° C.
Procedure: Vapor sorption/desorption was carried out using Surface Measurement Systems DVS-HT. Samples were placed into a foil insert placed on a sample pan. […] The equilibrium point of each step was reached when 0.002% of weight change was reached.

CRTH2 antagonistic activity [1]: excellent | Particle size distribution (PSD) % <10 μM ([2]; listed as Comp. Ex. 2): 11.57 | Particle size distribution (PSD) % <50 μM ([2]; listed as Comp. Ex. 2): 60.13 | particle size D90 ([2]; listed as Comp. Ex. 2): 120 µm | Particle size distribution (PSD) % <10 μM ([2]; listed as Comp. Ex. 3): 6.87 | Particle size distribution (PSD) % <50 μM ([2]; listed as Comp. Ex. 3): 57.62 | particle size D90 ([2]; listed as Comp. Ex. 3): 181 µm | Particle size distribution (PSD) % <10 μM ([2]; listed as Comp. Ex. 4): 3.01 | Particle size distribution (PSD) % <50 μM ([2]; listed as Comp. Ex. 4): 13.62 | particle size D90 ([2]; listed as Comp. Ex. 4): 38 µm | Particle size distribution (PSD) % <10 μM ([2]; listed as Ex. 1): 5.13 | Particle size distribution (PSD) % <50 μM ([2]; listed as Ex. 1): 16.67 | particle size D90 ([2]; listed as Ex. 1): 35.5 µm | diameter of 90% of the choline salt particles ([2]; seeding step with seeding particles of which 90% have a diameter of less than 50 μm): less than 100 μm | hygroscopicity (DVS isotherm, FIG. 3) [3]: non-hygroscopic
Compound: CN(C)c1nc(Cc2ccc(NC(=O)c3ccc(C(F)(F)F)cc3)cc2)nc(N(C)C)c1CC(=O)O [choline salt of [4,6-bis(dimethylamino)-2-(4-{[4-(trifluoromethyl)benzoyl]amino}benzyl)pyrimidin-5-yl]acetic acid]
